The subject of one data set is LPA2. Conditions: read-out: EC50 at LPA2; cited from earlier work.
A further data set has as its system LPA1. Conditions: read-out: EC50 at LPA1; cited from earlier work.
For another data set, the target named is LPA1 receptor (Homo sapiens, UniProt Q92633). Description: Ca2+ mobilization assay in LPA1 stably transfected RH7777 cells. Conditions: for LPA1 agonist activity (in words): highest concentration tested 10 μM. Format: cell-based. A general note: A change in cytosolic calcium serves as a functional read-out for many receptors and channels.
Chain of LPA1 receptor (Q92633 whole entry): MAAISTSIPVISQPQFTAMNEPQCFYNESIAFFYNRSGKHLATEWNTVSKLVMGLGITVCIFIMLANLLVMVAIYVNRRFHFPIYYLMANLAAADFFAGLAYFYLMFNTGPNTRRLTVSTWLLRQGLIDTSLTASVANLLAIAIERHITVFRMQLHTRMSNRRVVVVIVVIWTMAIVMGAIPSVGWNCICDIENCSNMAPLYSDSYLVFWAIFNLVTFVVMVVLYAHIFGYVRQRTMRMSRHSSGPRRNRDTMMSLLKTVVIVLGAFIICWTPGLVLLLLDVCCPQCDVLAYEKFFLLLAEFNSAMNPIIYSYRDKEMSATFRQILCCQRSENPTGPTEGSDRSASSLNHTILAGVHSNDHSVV
The subject of data set [1] is DRG neurons (nociceptors). Description: multielectrode array. The conditions noted are these: 10 μM, two consecutive pulses. Format: cell-based, rat.
Data set [2] deals with B103 neuroblastoma cells overexpressing EGFP-LPA1 receptor. As to the kind of experiment: neurite retraction assay. Format: cell-based. The conditions noted are these: 15 minutes treatment.
Data set [3] concerns mice. Description: open field test, exploratory and locomotor activity. Format: in vivo, mouse. Conditions: at the selected dose (10 mg/kg i.p.).
Data set [4] concerns dorsal root ganglia (DRG) neurons. As to the kind of experiment: calcium microfluorography in primary DRG sensory neurons. Format: cell-based, rat. Conditions: two repetitive applications of 10 μM.
Data set [5] has as its system mice. As to the kind of experiment: acetic acid-induced writhing assay. Format: in vivo, mouse. Background: In writhing tests, fewer writhes than in controls are read as antinociception.
Data set [6] in a line: stability studies in PBS and cellular culture medium. The conditions noted are these: up to 8 hours at 37 °C. The data set is classed as physicochemical.
A further data set relates to mice with SNI. Description: spared nerve injury. The data set is classed as in vivo, mouse. The conditions noted are these: 10 mg/kg i.p. daily; 3, 10 and 21 days post-surgery, vs vehicle.
The test system of data set [7] is B103 neuroblastoma cells overexpressing LPA1 receptor. As to the kind of experiment: transwell migration assay. Conditions: 1 μM in lower chamber, 5 h. Format: cell-based.
Data set [8] has as its system EGFP-LPA1 fusion receptor. Description: LPA1 receptor internalization assay. Conditions: 1 μM.

Molecules are shown by their SMILES. pEC50: −log10 of the molar value.

`CCCCCCCC/C=C\CCCCCCCC(=O)NCCC(=O)P(=O)(O)O` [Compound 2]: the pEC50 with LPA2 was 5.96; in the data set with LPA1, 6.66.

As to `CCCCCCCCCC/C=C\CCCCCCCC(=O)OC[C@@H](O)COP(=O)(O)O` [Compound 16, (2R)-2-Hydroxy-3-(phosphonooxy)propyl (9Z)-icos-9-enoate], the “LPA1 agonist activity (in words)” value on LPA1 receptor was “inactive”.

As to `O=C(CCCCCCCc1ccccc1)OC[C@@H](O)COP(=O)(O)O` [Compound 19, (2R)-2-Hydroxy-3-(phosphonooxy)propyl 8-phenyloctanoate], the “LPA1 agonist activity (in words)” value at LPA1 receptor was “inactive”.

Consider `O=C(CCCCCCCCCc1ccccc1)O[C@H](CBr)COP(=O)(O)O` [Compound (S)-17, (2S)-1-Bromo-3-(phosphonooxy)propan-2-yl 10-phenyldecanoate], for which, in [1], the “neuronal firing of action potentials on repeated application” value is given as “provoked the firing of action potentials that were attenuated upon a second instillation”. Moreover, the neurite retraction entry in [2] is reported as “induced neurite retraction”. For the same compound, the “exploratory or locomotor activity” value in the data set on mice [3] is listed as “did not induce any alteration in the exploratory or locomotor activity”. Moreover, the “Ca2+ response on repeated application” value in [4] is recorded as “induced a reduction of the Ca^2+ responses”. In addition, the “number of writhes after acute single administration” value in the data set with mice [5] is “increased the number of writhes in the first minutes after the administration”. Besides, the “compound remaining (stability)” value in data set [6] (PBS) and in data set [6] (culture media) was greater than 85% throughout. Besides, the mechanical nociceptive threshold result in the data set with mice with SNI is “significantly superior compared to vehicle-treated mice”. In addition, the cell migration entry in data set [7] is “induced cell migration”.

As to `CCCCCCCC/C=C\CCCCCCCC(=O)OC[C@@H](O)COP(=O)(O)O` [LPA, 1-oleoyl-sn-glycerol-3-phosphate, reference compound], the “neuronal firing of action potentials on repeated application” value in data set [1] is recorded as “provoked the firing of action potentials that were attenuated upon a second instillation”. Also, the “Ca2+ response relative to 10 μM ionomycin” value on LPA1 receptor (10 μM LPA, positive control) is given as 30–33%. In addition, the Emax at 10 µM on LPA1 receptor (RH7777) was 100%. The “Ca2+ response on repeated application” value in data set [4] is recorded as “the Ca^2+ response is notably reduced in a second LPA application”. Further, the LPA1 internalization result in data set [8] was “the receptor is internalized”.

For orientation: pEC50 means the negative decadic logarithm of the EC50, by convention in mol/L. One may read the Emax as the size of the effect at its maximum, as opposed to the concentration needed.

Values taken from PMC7344333 (Journal of medicinal chemistry, 2019).
